{"source": "patent US20150125550A1", "about": "“APPLICATION OF 2,9-DI-SEC-BUTYL-1,10-PHENANTHROLINE AS A GLIOBLASTOMA TUMOR CHEMOTHERAPY” (priority 2013, published 2015)", "key": {"A549 lung cancer cells": {"test_system": "A549 lung cancer cells", "assay": "SRB colorimetric assay, A549 lung cancer cells, 72 hours", "type": "cell-based, human", "conditions": "for IC50: A549, 72 hours, average ± SD of three curves; for IC50 times lower than cisplatin: A549", "protocol": "A549 cells were cultured in RPMI media supplemented with 10% Fetal Bovine Serum and 1% nonessential amino acids. Sub-culturing was carried out every 3-4 days and was completed by removing the supernatant media and treating the adherent cells with 1.0 mL of a 0.25% (w/v) Trypsin/0.5 mM EDTA solution. The cells were then treated for approximately 3 minutes in a 37° C. incubator under a 5% CO2 atmosphere. Trypsinization was stopped by the addition of 7.0 mL of cell culture media, the suspended cells were collected by centrifugation, and the resulting cell pellet was re-suspended in fresh cell culture media. The cells were then diluted 1:4 by volume and incubated in a 37° C. incubator with 5% CO2. Cells were grown to 80-90% confluency prior to being used in the SRB colorimetric assays.\nTo test the effects of compounds 1-18 on the growth of A549 lung cancer cells, SRB cytotoxicity assays were done as described by Skehan et al. Cells were maintained in RPMI media as described above, collected, and diluted so that cells could be seeded in 96-well plates at a density of 4,000 cells/well. The 96-well plate was incubated overnight at 37° C. under a 5% CO2 atmosphere. Subsequently, sterifiltered DMSO stock solutions of the drugs were added to the wells in various concentrations (0-25 μM) and the 96-well plate was incubated at 37° C. under a 5% CO2 for an additional 72 hours. The supernatant cell culture medium was then removed and the cells were fixed for 1 hour with 10% cold trichloroacetic acid (100 μL per well). The trichloroacetic acid was discarded and the plates were washed 5 times with de-ionized water and air dried. After being stained with 0.4% SRB ([…]) and incubated at room temperature for 10 minutes, the cells were washed 5 times with 1% acetic acid and air dried. The bound SRB was dissolved in 10 mM unbuffered Tris, pH 10.5 ([…]) for 10 minutes at room temperature, and the absorbance at 492 nm was measured using a microplate reader. The percent cell growth was then calculated based upon the absorbance values relative to control samples not containing any drug. Each drug concentration was done in triplicate to yield a percent growth vs. drug concentration curve, and these growth curves were subsequently repeated two additional times. The growth curves from the three experiments were then plotted in GraphPad Prism and best-fit curves were used to generate the IC50 values for each curve."}, "GL-26 glioma cells [1]": {"test_system": "GL-26 glioma cells", "assay": "SRB growth assay, GL-26 glioma cells, 48 hr drug incubation", "type": "cell-based, murine (C57BL/6)", "conditions": "Mus musculus, read-out: GL-26 cell growth inhibition", "protocol": "The murine (C57BL/6) glioma cell line, GL-26, which is highly tumorigenic in the C57BL/6 mice. GL-26 cells were cultured in DMEM/F12 supplemented with 10% FCS, 1% penicillin/streptomycin, 1% L-glutamine and 1% non-essential amino acids. Human foreskin fibroblasts (HFFs) were cultured in DMEM/F12 supplemented with 10% FCS and 1% penicillin/streptomycin. Primary murine astrocytes were purified from C57BL/6 neonate brains and cultured in DMEM/F12 supplemented with 10% FCS, 1% non-essential amino acids, 1% Lglutamine, 50 IU/ml penicillin, […] and 10 mM Hepes buffer.\nThe sulforhodamine B (SRB) cytotoxicity assays were adapted from Skehan et al. (22). Briefly, either HFF, primary astrocytes or GL-26 cells were plated in 96-well plates at a density of 4,000 cells/well in a volume of 100 µL overnight at 37° C. and 5% CO2. DMSO stock solutions of SBP, MSBP or TMZ were used at a concentration range of 0.1-25 μM for 48 hr before the supernatant was discarded and the cells were fixed for 1 hr with 10% cold trichloroacetic acid (100 μL, per well). Cells used in recovery assay received fresh media for 48 hrs following the 48 hr drug incubation. The plate was then washed 5 times with de-ionized water, air dried, and stained with 0.4% SRB for 10 min (50 μL, per well). After washing 5 times in 1% acetic acid and air-drying, bound SRB was dissolved in 10 mM unbuffered Tris base (pH 10.5; 100 μL, per well). Bound SRB was then read by absorbance at 492 nm on a SpectraMax plate reader (Molecular Devices). The percent survival was then calculated based upon the absorbance values relative to control wells (0 μM SBP in 0.1% DMSO)."}, "[2]": {"conditions": "GSH buffer solution; cited from earlier work"}, "[3]": {"assay": "Glutathione stability experiments (UV-visible spectra)", "type": "physicochemical", "conditions": "5.0×10^−5 M complex, one mole equivalent GSH, phosphate buffer pH 7.4, 15 hours", "protocol": "5.0×10^−3 M stock solutions of compounds 10-18 were prepared in acetonitrile or DMSO, and subsequently diluted in phosphate buffer (0.10M, pH 7.4) to yield a final gold complex concentration of 5.0×10^−5 M. A stock solution of reduced glutathione in phosphate buffer (0.10M, pH 7.4) was used to add one mole equivalent of GSH to the final gold complex solution, and UV-visible spectra of compounds 10-18 were subsequently collected every hour over a 15 hour period."}, "GL-26 glioma cells [4]": {"test_system": "GL-26 glioma cells", "assay": "SRB growth assay, cisplatin/SBP combination", "type": "cell-based, murine (C57BL/6)", "conditions": "0.8 μM cisplatin alone, 48 hours", "protocol": "The murine (C57BL/6) glioma cell line, GL-26, which is highly tumorigenic in C57BL/6 mice, were used for these in-vitro experiments. GL-26 cells were cultured in DMEM/F12 supplemented with 10% FCS, 1% penicillin/streptomycin, 1% L-glutamine and 1% non-essential amino acids.\nSulforhodamine B (SRB) cytotoxicity assays were utilized to assess antitumor activity. GL-26 cells were plated in 96 well plates at a density of 4,000 cells/well (in a total volume of 100 µL) and incubated for 24 hours in a humidified atmosphere of 5% CO2 at 37° C. GL-26 cells were then exposed to Cisplatin at 0-25 μM with either 0.1 or 0.4 μM SBP for 48 hours. The supernatant was then discarded and the GL-26 cells were fixed with 10% cold trichloroacetic acid for 1 hour (100 μL/well). The cells were washed 5 times with de-ionized water, air dried, and stained with 0.4% SRB for 10 min (50 μL/well). GL-26 cells were then washed 5 times in 1% acetic acid and allowed to air dry. The bound SRB was dissolved in a 10 mM unbuffered Tris base (pH 10.5; 100 μL per well) and quantified by the absorbance at 492 nm using the SpectraMax plate reader (Molecular Devices). The fraction of cell growth was determined based upon the absorbance values in comparison to the control wells (0 μM SBP in 0.5% DMSO). All cell growth assays were done in a minimum of triplicates."}}}
{"molecule": "CCCCc1ccc2ccc3ccc(CCCC)nc3c2n1", "note": "[Compound 2, 2,9-di-n-butyl-1,10-phenanthroline]", "values": [{"measurement": "IC50", "setting": "A549 lung cancer cells; Homo sapiens", "value": "1.08 ± 0.28", "unit": "µM"}]}
{"molecule": "Cc1ccc2ccc3ccc(C)nc3c2n1", "note": "[Compound 3, 2,9-di-methyl-1,10-phenanthroline]", "values": [{"measurement": "IC50", "setting": "A549 lung cancer cells; Homo sapiens", "value": "1.35 ± 0.09", "unit": "µM"}]}
{"molecule": "CCC(C)c1ccc2ccc3c(C)cc(C(C)CC)nc3c2n1", "note": "(centres unmarked) [Compound 4, 2,9-di-sec-butyl-4-methyl-1,10-phenanthroline]", "values": [{"measurement": "IC50", "setting": "A549 lung cancer cells; Homo sapiens", "value": "0.7 ± 0.11", "unit": "µM"}]}
{"molecule": "CCC(C)c1ccc2ccc3cccnc3c2n1", "note": "(centres unmarked) [Compound 5, 2-sec-butyl-1,10-phenanthroline]", "values": [{"measurement": "IC50", "setting": "A549 lung cancer cells; Homo sapiens", "value": "0.62 ± 0.16", "unit": "µM"}, {"measurement": "inhibition at 6 µM", "setting": "GL-26 glioma cells [1]; GL26, 6 μM", "value": "0.6 ± 1.2", "unit": "%"}, {"measurement": "inhibition at 25 µM", "setting": "GL-26 glioma cells [1]; GL26, 25 μM", "value": "24.7 ± 5", "unit": "%"}]}
{"molecule": "CCCCc1ccc2ccc3cccnc3c2n1", "note": "[Compound 6, 2-mono-n-butyl-phenanthroline]", "values": [{"measurement": "IC50", "setting": "A549 lung cancer cells; Homo sapiens", "value": "2.92 ± 0.47", "unit": "µM"}]}
{"molecule": "c1ccc(-c2ccc3ccc4ccc(-c5ccccc5)nc4c3n2)cc1", "note": "[Compound 7, 2,9-di-phenyl-1,10-phenanthroline]", "values": [{"measurement": "IC50", "setting": "A549 lung cancer cells; Homo sapiens", "value": "1.87 ± 0.21", "unit": "µM"}]}
{"molecule": "Cc1cc(-c2ccccc2)nc2c1ccc1ccc(-c3ccccc3)nc12", "note": "[Compound 8, 2,9-di-phenyl-4-methtyl-1,10-phenanthroline]", "values": [{"measurement": "IC50", "setting": "A549 lung cancer cells", "value": "1.35 ± 0.11", "unit": "µM"}]}
{"molecule": "CCC(C)c1ccc2ccc3ccc(C(C)CC)nc3c2n1.[Cl][Au]([Cl])[Cl]", "note": "(centres unmarked) [Compound 10, (2,9-di-sec-butyl-1,10-phenanthroline)AuCl3]", "values": [{"measurement": "IC50", "setting": "A549 lung cancer cells", "value": "0.58 ± 0.15", "unit": "µM"}, {"measurement": "stability in the presence of GSH (previous studies)", "setting": "[2]", "value": "quite stable in the presence of a GSH buffer solution"}]}
{"molecule": "CCCCc1ccc2ccc3ccc(CCCC)nc3c2n1.[Cl][Au]([Cl])[Cl]", "note": "[Compound 11, (2,9-di-n-butyl-1,10-phenanthroline)AuCl3]", "values": [{"measurement": "IC50 times lower than cisplatin", "setting": "A549 lung cancer cells", "value": "approximately 12 times"}, {"measurement": "IC50", "setting": "A549 lung cancer cells", "value": "0.34 ± 0.06", "unit": "µM"}, {"measurement": "times more active than the free ligand", "setting": "A549 lung cancer cells; A549 IC50 ratio", "value": "approximately 3 times"}]}
{"molecule": "Cc1ccc2ccc3ccc(C)nc3c2n1.[Cl][Au]([Cl])[Cl]", "note": "[Compound 12, (2,9-di-methyl-1,10-phenanthroline)AuCl3]", "values": [{"measurement": "IC50", "setting": "A549 lung cancer cells", "value": "1.47 ± 0.21", "unit": "µM"}]}
{"molecule": "CCC(C)c1ccc2ccc3c(C)cc(C(C)CC)nc3c2n1.[Cl][Au]([Cl])[Cl]", "note": "(centres unmarked) [Compound 13, (2,9-di-sec-butyl-4-methyl-1,10-phenanthroline)AuCl3]", "values": [{"measurement": "IC50", "setting": "A549 lung cancer cells", "value": "4.02 ± 0.32", "unit": "µM"}, {"measurement": "times less active than the corresponding free ligand", "setting": "A549 lung cancer cells; A549 IC50 ratio", "value": "approximately 6 times"}]}
{"molecule": "CCC(C)c1ccc2ccc3cccnc3c2n1.[Cl][Au]([Cl])[Cl]", "note": "(centres unmarked) [Compound 14, (2-sec-butyl-1,10-phenanthroline)AuCl3]", "values": [{"measurement": "IC50", "setting": "A549 lung cancer cells", "value": "0.77 ± 0.07", "unit": "µM"}]}
{"molecule": "CCCCc1ccc2ccc3cccnc3c2n1.[Cl][Au]([Cl])[Cl]", "note": "[Compound 15, (2-mono-n-butyl-phenanthroline)AuCl3]", "values": [{"measurement": "IC50 times lower than cisplatin", "setting": "A549 lung cancer cells", "value": "approximately 12 times"}, {"measurement": "IC50", "setting": "A549 lung cancer cells", "value": "0.37 ± 0.09", "unit": "µM"}, {"measurement": "times more active than the free ligand", "setting": "A549 lung cancer cells; A549 IC50 ratio", "value": "~8", "unit": "times"}, {"measurement": "redox stability in the presence of GSH", "setting": "[3]", "value": "no reduction to gold(I) or gold(0) occurred"}]}
{"molecule": "[Cl][Au]([Cl])[Cl].c1ccc(-c2ccc3ccc4ccc(-c5ccccc5)nc4c3n2)cc1", "note": "[Compound 16, (2,9-di-phenyl-1,10-phenanthroline)AuCl3]", "values": [{"measurement": "IC50", "setting": "A549 lung cancer cells", "value": "1.65 ± 0.13", "unit": "µM"}]}
{"molecule": "Cc1cc(-c2ccccc2)nc2c1ccc1ccc(-c3ccccc3)nc12.[Cl][Au]([Cl])[Cl]", "note": "[Compound 17, (2,9-di-phenyl-4-methtyl-1,10-phenanthroline)AuCl3]", "values": [{"measurement": "IC50", "setting": "A549 lung cancer cells", "value": "1.37 ± 0.11", "unit": "µM"}]}
{"molecule": "Cc1c(C)c2cccnc2c2ncccc12.[Cl][Au+][Cl]", "note": "[[(^5,6-di-methylphen)AuCl2]^+, reference compound]", "values": [{"measurement": "stability in the presence of GSH (previous studies)", "setting": "[2]", "value": "underwent immediate reduction to gold(0) in the presence of GSH"}]}
{"molecule": "N.N.[Cl][Pt][Cl]", "note": "[cisplatin, [Pt(NH3)2Cl2], reference compound]", "values": [{"measurement": "IC50", "setting": "A549 lung cancer cells", "value": "4.67 ± 0.21", "unit": "µM"}, {"measurement": "cell growth compared to untreated tumor cells", "setting": "GL-26 glioma cells [4]", "value": "approximately 78%"}]}
{"molecule": "(2-mono-sec-butyl-2,2′-bipyridine)AuCl3 [Compound 18]", "values": [{"measurement": "Cell Growth @ 12 μM", "setting": "A549 lung cancer cells; A549, 12 μM", "value": 100, "unit": "% Cell Growth @ 12 μM"}, {"measurement": "reduction of A549 tumor cell growth", "setting": "A549 lung cancer cells; concentrations used for compounds 1-8 and 10-17", "value": "did not reduce tumor cell growth at any of the concentrations"}]}
